Results as given in article PMC9238271, “The quorum sensing peptide EntF* promotes colorectal cancer metastasis in mice: a new factor in the host-microbiome interaction” (BMC Biology, 2022).

What was measured:
[1] = In vitro metabolization of EntF: formation of EntF* in colon tissue homogenate; type: in vitro ADME, C57BL/6 female mice
Protocol: Krebs-Henseleit (KH) buffer (Sigma-Aldrich, Belgium) was prepared by dissolving the powdered medium in 900 mL water while stirring. Once the powder was completely dissolved, 0.3790 g CaCl2•2H2O and 2.098 g NaHCO3 were added to the solution. NaOH or HCl was used to adjust the pH to 7.4. The solution was brought to final volume (1000 mL) with ultrapure water.
For the preparation of colon tissue homogenates for EntF in vitro metabolization study, colons were collected from two untreated C57BL/6 female mice after cervical dislocation. After cleaning and rinsing the organs with ice-cold KH buffer, colons were cut into small pieces and transferred into 15 mL tubes containing 5 mL ice-cold KH buffer. Colon tissues were homogenized for 1 min. Larger particles were allowed to sediment for about 30 min at 5 °C, and then approximately 2 mL of the middle layer of each tube was transferred into a 2 mL Eppendorf tube and stored at − 35 °C. Before use, the homogenate was diluted to a final protein concentration of 0.6 mg/mL.
(§1) To avoid the absorption of EntF* onto plasticware and glassware, all tubes and containers were coated with a BSA-based anti-adsorption solution before use.
Five hundred microliters of tissue homogenate were mixed with 400 μL of pre-warmed KH buffer. Then, 100 μL of KH buffer (blank) or 1 mg/mL EntF peptide solution (test) were added to the diluted homogenate and incubated at 37 °C. […] After centrifugation at 16,000g for 30 min at 5 °C, supernatants were analyzed by LC1-MS1 for EntF* quantification.
(§2) EntF* was detected and quantified on a Waters Acquity® UPLC H-class system, connected to a Waters Xevo™ TQ-S triple quadrupole mass spectrometer with electrospray ionization (operated in positive ionization mode). Autosampler tray and column oven were kept at 10 ± 5 °C and 60 ± 5 °C, respectively. Chromatographic separation was achieved on a Waters Acquity® UPLC BEH Peptide C18 column (300 Å, 1.7 μm, 2.1 mm × 100 mm). The mobile phases consisted of 93/2/5 water/acetonitrile/DMSO (V/V/V) containing 0.1% formic acid (mobile phase A) and 2/93/5 water/acetonitrile/DMSO (V/V/V) containing 0.1% formic acid (mobile phase B), and the flow rate was set to 0.5 mL/min. A 10-μL aliquot from each sample was injected. The gradient program started with 80% of mobile phase A for 1 min, followed by a linear gradient to 40% of mobile phase A for 3.5 min. Gradient was then changed to 14.2% mobile phase A at 5 min, followed by a 1 min equilibration, before starting conditions were applied. EntF* retention time was between 4.25 and 4.45 min.
An optimized capillary voltage of 3.00 kV, a cone voltage of 20.00 V, and a source offset of 50.0 V were used. Acquisition was done in the MRM mode. The selected precursor ion for EntF* was m/z 865.7 with two selected product ions at m/z 202.08 (36 eV, b2 fragment) as quantifier and m/z 315.17 (31 eV, b3 fragment) as qualifier.

[2] = Caco-2 monolayer permeability assay; type: in vitro ADME; details: Caco-2 Transwell A -> B, 1 µM EntF* apical, HBSS, LC1-MS1; average of AB1-AB6; read-out: Kapp, average
Protocol: as §1
HCT-8, HT-29, and HT-116 cells were grown in DMEM medium supplied with 10% fetal bovine serum (FBS) and 1% penicillin-streptomycin. Caco-2 cells were grown in DMEM medium supplied with 10% FBS, 1% non-essential amino acid NEAA), and 1% penicillin-streptomycin. Cells were cultured at 37 °C and 5% CO2. As cells reached confluency, they were detached using 0.25% Trypsin-EDTA.
Caco-2 cells were seeded on Transwell polycarbonate membrane filters (0.4 μm pore size, Corning, Germany) at a density of 2.6 × 10^5 cells/cm^2 and permeability tests performed as described by Hubatsch et al.. Cells were submerged with Hank’s balanced salt solution (HBSS), and transepithelial electrical resistance (TEER) was measured before and after the experiment. Peptide solution (1 μM) was added to the apical chamber, and 300 μL aliquots were taken after 30, 60, 90, and 120 min of incubation. Samples were analyzed using LC1-MS1. Linear curve fitting was used to calculate the apparent permeability coefficient (Papp).
as §2

[3] = test system: luciferase-transfected HCT-8/E11 cells injected into the cecal wall; test: Orthotopic mouse model: macroscopic number of tumor nodules on the cecum; type: in vivo, female athymic nude mice (Swiss nu/nu)
Protocol: Six-week-old female athymic nude mice (Swiss nu/nu) were anesthetized, and a minimally invasive midline laparotomy was performed to localize the cecum. The cecum was then gently pulled out, and luciferase-transfected HCT-8/E11 cells (1 × 10^6 cells) in 20 μL serum-free DMEM medium with Matrigel (1:1) were injected into the cecal wall. Before implantation, cells were treated with EntF* (10^2 nM), Phr0662 (10^2 nM), vehicle (PBS), or TGFα positive control (0.1 μg mL^−1) solutions for 5 days. The cecum was then carefully placed back into the abdominal cavity and the surgical incision was closed with two layers of sutures with PDS 6-0. […] Once a week, mice were examined for tumor growth and metastases using bioluminescent imaging with the IVIS Lumina II (Perkin Elmer, Belgium) after i.p. injection with 200 μL luciferin (150 mg kg^−1). After 6 weeks, mice were euthanized using cervical dislocation, and the liver, diaphragm, lungs, cecum, duodenum, and peritoneum were macroscopically examined for the presence of tumor nodules. Liver and lung tissues were then fixed in formalin for 24 h and stored in 70% ethanol for maximum 3 days before embedding in paraffin. Next, a hematoxylin and eosin (H&E) staining was performed on 8 μm sections, and 3 sections per mouse were visualized using microscopy. Slides from tumor-bearing mice were analyzed by two blinded, independent investigators using the scoring system described in Additional file 5: Table S3. In case of differences, slides were scored by a third blinded, independent investigator for consensus.
The Kolmogorov-Smirnov test was used to assess if data obtained were normally distributed. For sample size n < 10, non-parametric tests (Mann-Whitney U test) were performed directly. Slope comparison was based on linear regression analysis. Bootstrapped medians and Hedges G-values were used to calculate the effect size when sample sizes were different between the groups. Cohen’s d values were calculated as a measure of the effect size when similar standard deviations for both groups were found, and sample sizes were the same.

[4] = Colon, Time 0, initial concentration EntF 31.82 µM
[5] = Colon, Time 1, initial concentration EntF 31.82 µM
[6] = Colon, Time 5, initial concentration EntF 31.82 µM
[7] = Colon, Time 10, initial concentration EntF 31.82 µM
[8] = Colon, Time 30, initial concentration EntF 31.82 µM
[9] = Colon, Time 60, initial concentration EntF 31.82 µM
[10] = Colon, Time 120, initial concentration EntF 31.82 µM
[11] = Colon, Time 180, initial concentration EntF 31.82 µM

CC(C)C[C@@H]1NC(=O)[C@H](CO)NC(=O)[C@H](Cc2ccccc2)NC(=O)[C@H](C(C)C)NC(=O)[C@@H](NC(=O)[C@H](CCC(=O)O)NC(=O)[C@@H](NC(=O)[C@H](CC(C)C)NC(=O)[C@H](CC(N)=O)NC(=O)[C@@H](N)CO)C(C)C)CSSC[C@@H](C(=O)N[C@@H](CC(N)=O)C(=O)O)NC(=O)[C@H](CCCCN)NC(=O)[C@H](CCCCN)NC(=O)[C@H](Cc2ccccc2)NC1=O (single isomer, unassigned) [EntF*]
Stability of EntF* in Colon tissue ([1]; Colon tissue): EntF* is stable in Colon tissue | EntF* Conc [1, 4]: 0.00 µM | EntF* without metabolisation, Conc [1, 4]: 0.00 µM | EntF*/EntF % [1, 4]: 0.00% | EntF* Conc [1, 5]: 0.0286 µM | EntF*/EntF % [1, 5]: 0.09% | EntF* Conc [1, 6]: 0.20 µM | EntF*/EntF % [1, 6]: 0.62% | EntF* Conc [1, 7]: 0.50 µM | EntF*/EntF % [1, 7]: 1.56% | EntF* Conc [1, 8]: 0.94 µM | EntF*/EntF % [1, 8]: 2.94% | EntF* Conc [1, 9]: 2.03 µM | EntF*/EntF % [1, 9]: 6.39% | EntF* Conc [1, 10]: 3.15 µM | EntF*/EntF % [1, 10]: 9.89% | EntF* Conc [1, 11]: 5.17 µM | EntF*/EntF % [1, 11]: 16.25% | formation rate of EntF* (from EntF) in colonic tissues ([1]; mouse colon tissue homogenate (0.6 mg/mL protein) 500 μL + 400 μL Krebs-Henseleit buffer pH 7.4 + 100 μL 1 mg/mL EntF, 37 °C, aliquots 0-180 min, LC1-MS1, mean ± SEM, n = 7): 0.11 ± 0.01 % min^−1 | Formation rate, Colon tissue, Average ([1]; mouse colon tissue homogenate, Krebs-Henseleit buffer pH 7.4, 37 °C, LC1-MS1, average of X1-X7): 0.11 %*min-1 | Formation rate, Colon tissue ([1]; mouse colon tissue homogenate, Krebs-Henseleit buffer pH 7.4, 37 °C, LC1-MS1, replicate X1): 0.0898 %*min-1 | Formation rate, Colon tissue ([1]; mouse colon tissue homogenate, Krebs-Henseleit buffer pH 7.4, 37 °C, LC1-MS1, replicate X2): 0.1249 %*min-1 | Formation rate, Colon tissue ([1]; mouse colon tissue homogenate, Krebs-Henseleit buffer pH 7.4, 37 °C, LC1-MS1, replicate X3): 0.1563 %*min-1 | Formation rate, Colon tissue ([1]; mouse colon tissue homogenate, Krebs-Henseleit buffer pH 7.4, 37 °C, LC1-MS1, replicate X4): 0.0981 %*min-1 | Formation rate, Colon tissue ([1]; mouse colon tissue homogenate, Krebs-Henseleit buffer pH 7.4, 37 °C, LC1-MS1, replicate X5): 0.1065 %*min-1 | Formation rate, Colon tissue ([1]; mouse colon tissue homogenate, Krebs-Henseleit buffer pH 7.4, 37 °C, LC1-MS1, replicate X6): 0.0824 %*min-1 | Formation rate, Colon tissue ([1]; mouse colon tissue homogenate, Krebs-Henseleit buffer pH 7.4, 37 °C, LC1-MS1, replicate X7): 0.0903 %*min-1 | Papp A→B [2]: 0.00367 ×10⁻⁶ cm/s | effect size class by Hedges' G, number of nodules in the cecum ([3]; after a 6-week treatment, compared to the placebo group): medium | Mean amount of nodules ([3]; macroscopic evaluation caecum, mean of the group): 11.5
